The values below come from patent US9446145B2, “Curcumin-antibody conjugates as anti-cancer agents” (priority 2009, dated 2016).

One assay has as its system GL261 glioblastoma cells. As to the kind of experiment: GL261 glioblastoma cell killing IC50 (same approach as for B16F10). In kind it is cell-based. To be noted: Mus musculus, solubilized non-targeted curcumin. The procedure:
(§1) B16F10 melanoma cells were plated in a 96-well tissue culture plate with 2,000 cells in 50 μl of medium (DMEM+10% fetal bovine serum+1% penicillin-streptomycin) per well. After 24 hours, the targeted curcumin derivative (linked to 633 dye) was administered in a range of concentrations-10 nM, 20 nM, 30 nM, 50 nM, 100 nM. The product was diluted in neurobasal medium (+1% penicillin-streptomycin, 1% 1-glutamine, 2% B27 supplement), with 50 μl per well, and 2 wells per concentration. Control wells were treated with corresponding concentrations of free MUC18 antibody coupled to 633 dye. The plate was imaged after 24 hours using visible light and fluorescent microscopes. Using cell counts from four frames per well, the mean live cell number and mean standard deviation for each concentration (and its corresponding control) were found. The data was compiled and graphed on Kaleida Graph. […] See below. Each corresponding control well received the same amount of curcumin-free Mel-CAM-Dylight800.
The same approach used for the B16F10 melanoma cells (see above) was next used for the glioblastoma GL261 cells by attaching curcumin to an antibody against the […] antigen, which is expressed on the surface of grade III/IV glioblastoma (Strik, H. M., et al., Galectin-3: Cellular Distribution and Correlation with WHO-grade in Human Gliomas. Journal of Neuro-Oncology, 53(1): p. 13-20 (2001)). […]

In the next assay the test system is B16F10 melanoma cells. The assay can be described thus: B16F10 melanoma cell death IC50 (live cell counts 24 h after treatment). To be noted: Mus musculus, B16-F10, 24 h, free/solubilized curcumin, read-out: IC50 (concentration required for 50% B16F10 melanoma cell death). The format is cell-based. On the procedure:
as §1
Determined using same methods as step 1a. Dilution of 100 nM, 200 nM, 300 nM, 400 nM, 500 nM, 1 μM, 10 μM, 20 μM, 30 μM, 40 μM, and 50 μM were made using a 40 mM stock solution of curcumin in DMSO. Curcumin IC50 was compared to curc-MUC18 IC50 using Kaleida Graph.

pIC50: −log10 of the molar value.

Regarding `COc1cc(C=CC(=O)CC(=O)C=Cc2ccc(O)c(OC)c2)ccc1O` [curcumin, 1,7-bis(4-hydroxy-3-methoxyphenyl)-1,6-heptadiene-3,5-dione], the pIC50 is 5.00 in the assay with GL261 glioblastoma cells and 4.82 in the assay on B16F10 melanoma cells.
